Experimental data taken from US20080293712A1, “Benzo[C][2,7]Naphtyridine Derivatives, Methods of Making Thereof and Methods of Use Thereof” (WYETH, priority 2007, published 2008).

Biological target: T1, PDK-1 (Homo sapiens, UniProt O15530)
T1 sequence (O15530 1-556): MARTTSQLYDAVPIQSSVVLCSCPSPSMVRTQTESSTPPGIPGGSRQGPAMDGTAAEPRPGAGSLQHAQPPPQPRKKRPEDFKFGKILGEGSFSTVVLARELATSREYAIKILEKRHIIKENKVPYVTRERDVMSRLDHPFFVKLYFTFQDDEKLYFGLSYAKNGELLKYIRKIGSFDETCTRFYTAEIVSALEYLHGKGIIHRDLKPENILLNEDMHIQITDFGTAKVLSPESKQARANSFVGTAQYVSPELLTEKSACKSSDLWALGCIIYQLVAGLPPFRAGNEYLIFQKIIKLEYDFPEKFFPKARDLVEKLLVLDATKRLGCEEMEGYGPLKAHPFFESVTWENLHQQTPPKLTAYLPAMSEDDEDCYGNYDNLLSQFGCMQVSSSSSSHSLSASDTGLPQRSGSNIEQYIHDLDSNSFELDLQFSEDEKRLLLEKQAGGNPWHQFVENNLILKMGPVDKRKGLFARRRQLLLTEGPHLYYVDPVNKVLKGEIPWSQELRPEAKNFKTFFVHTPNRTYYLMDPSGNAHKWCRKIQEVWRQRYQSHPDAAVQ
Assay: PDK-1 kinase inhibition ELISA assay (phosphorylation of His6-tagged SGK1 S422D by PDK-1)
Type: biochemical
Settings: PDK-1 ELISA, Table 11; read-out: Average IC50

Row | Compound | IC50 [nM]
1 | COc1cc2ncc3c(N)nc(-c4cncc(C(=N)NC(C)C)c4)cc3c2cc1OC [Ib-269, 5-(4-Amino-8,9-dimethoxybenzo[c][2,7]naphthyridin-2-yl)-N-isopropylnicotin-imidamide] | 606
2 | CCOc1cc2ncc3c(N)nc(-n4ccnc4)cc3c2cc1NC(=S)NCCN1CCOCC1 [Ia-26, N-[4-amino-8-ethoxy-2-(1H-imidazol-1-yl)benzo[c]-2,7-naphthyridin-9-yl]-N′-(2-morpholin-4-ylethyl)thiourea] | 549
3 | COc1cc2ncc3c(N)nc(-c4cccnc4C)cc3c2cc1OC [Ib-60] | 532
4 | COc1cc2ncc3c(N)nc(N(C)Cc4cccnc4)cc3c2cc1OC [Ib-64, 8,9-dimethoxy-N^2-methyl-N^2-(pyridin-3-ylmethyl)benzo[c]-2,7-naphthyridine-2,4-diamine] | 3580
5 | CCCCNC(=N)c1cncc(-c2cc3c(cnc4cc(OC)c(OC)cc43)c(N)n2)c1 [Ib-268, 5-(4-Amino-8,9-dimethoxybenzo[c][2,7]naphthyridin-2-yl)-N-butylnicotinimidamide] | 1000
6 | COCCOc1cc2ncc3c(N)nc(N4CCC(O)CC4)cc3c2cc1OC [Ia-53, 1-[4-amino-9-methoxy-8-(2-methoxyethoxy)benzo[c]-2,7-naphthyridin-2-yl]piperidin-4-ol] | 2060
7 | C=CCOc1cncc(-c2cc3c(cnc4cc(OC)c(OC)cc43)c(N)n2)c1 [Ib-266, 2-(5-(Allyloxy)pyridin-3-yl)-8,9-dimethoxybenzo[c][2,7]naphthyridin-4-amine] | 18
8 | COc1ccc(-c2cc3c(cnc4cc(OC)c(OC)cc43)c(N)n2)cn1 [Ib-237, 8,9-dimethoxy-2-(6-methoxypyridin-3-yl)benzo[c][2,7]naphthyridin-4-amine] | 50
9 | COCCOc1cc2ncc3c(N)nc(N(C)CCOC)cc3c2cc1OC [Ia-54, 9-methoxy-8-(2-methoxyethoxy)-N^2-(2-methoxyethyl)-N^2-methylbenzo[c]-2,7-naphthyridine-2,4-diamine] | 2260
10 | COc1cc2ncc3c(N)nc(-c4cncc(CCC(C)(C)N)c4)cc3c2cc1OC [Ib-257, 2-[5-(3-amino-3-methylbutyl)pyridin-3-yl]-8,9-dimethoxybenzo[c][2,7]naphthyridin-4-amine] | 29
11 | COCCOc1cc2ncc3c(N)nc(N4CCC(C)CC4)cc3c2cc1OC [Ia-50, 9-methoxy-8-(2-methoxyethoxy)-2-(4-methylpiperidin-1-yl)benzo[c]-2,7-naphthyridin-4-amine] | 2440
12 | COc1cc2ncc3c(N)nc(-c4cncc(Oc5ccc(N)nc5)c4)cc3c2cc1OC [Ib-172, 2-{5-[(6-Aminopyridin-3-yl)oxy]pyridin-3-yl}-8,9-dimethoxybenzo[c][2,7]naphthyridin-4-amine] | 151
13 | COc1cc2ncc3c(N)nc(-c4cncc(Nc5ccccc5Nc5ccccc5)c4)cc3c2cc1OC [Ib-183, N-[5-(4-amino-8,9-dimethoxybenzo[c][2,7]naphthyridin-2-yl)pyridin-3-yl]-N′-phenylbenzene-1,2-diamine] | 505
14 | COCCOc1cc2ncc3c(N)nc(N4CCC(CCO)CC4)cc3c2cc1OC [Ia-51, 2-{1-[4-amino-9-methoxy-8-(2-methoxyethoxy)benzo[c]-2,7-naphthyridin-2-yl]piperidin-4-yl}ethanol] | 3720

Other lines, results leading:

Row | IC50 [nM] | Compound
15 | 25 | COc1cc2ncc3c(N)nc(-c4cncc(OC[C@@H](N)CNCC5(c6ccccc6)CCOCC5)c4)cc3c2cc1OC [Ib-104, (2S)-3-{[5-(4-amino-8,9-dimethoxybenzo[c][2,7]naphthyridin-2-yl)pyridin-3-yl]oxy}-N1-[(4-phenyltetrahydro-2H-pyran-4-yl)methyl]propane-1,2-diamine]
16 | 5 | COc1cc2ncc3c(N)nc(-c4cncc(OC[C@@H](N)CNc5ccc(F)cc5F)c4)cc3c2cc1OC [Ib-85, (2S)-3-{[5-(4-amino-8,9-dimethoxybenzo[c][2,7]naphthyridin-2-yl)pyridin-3-yl]oxy}-N1-(2,4-difluorophenyl)propane-1,2-diamine]
17 | 4 | COc1cc2ncc3c(N)nc(-c4cncc(OC[C@@H](N)CNC(C)(C)c5ccccn5)c4)cc3c2cc1OC [Ib-94, (2S)-3-{[5-(4-amino-8,9-dimethoxybenzo[c][2,7]naphthyridin-2-yl)pyridin-3-yl]oxy}-N1-(1-methyl-1-pyridin-2-ylethyl)propane-1,2-diamine]
18 | 92 | COc1cc2ncc3c(N)nc(-c4cncc(OC[C@@H](N)Cn5ccc(=N)cc5)c4)cc3c2cc1OC [Ib-82, 2-(5-{[(2S)-2-amino-3-(4-iminopyridin-1(4H)-yl)propyl]oxy}pyridin-3-yl)-8,9-dimethoxybenzo[c][2,7]naphthyridin-4-amine]
19 | 61 | COc1cc2ncc3c(N)nc(-c4cncc(OC[C@@H](N)CNC5CCCCC5)c4)cc3c2cc1OC [Ib-89, (2S)-3-{[5-(4-amino-8,9-dimethoxybenzo[c][2,7]naphthyridin-2-yl)pyridin-3-yl]oxy}-N1-cyclohexylpropane-1,2-diamine]
20 | > 100 | COc1cc2ncc3c(NO)nc(-c4cncc(OC[C@@H](N)Cc5cccc(Cl)c5)c4)cc3c2cc1OC [Compound I-2, 2-(5-{[(2S)-2-amino-3-(3-chlorophenyl)propyl]oxy}pyridin-3-yl)-N-hydroxy-8,9-dimethoxybenzo[c]-2,7-naphthyridin-4-amine]
21 | 24 | COc1cc2ncc3c(N)nc(-c4cncc(OC[C@@H](N)CNCCc5ccncc5)c4)cc3c2cc1OC [Ib-97, (2S)-3-{[5-(4-amino-8,9-dimethoxybenzo[c][2,7]naphthyridin-2-yl)pyridin-3-yl]oxy}-N1-(2-pyridin-4-ylethyl)propane-1,2-diamine]
22 | 5 | COc1cc2ncc3c(N)nc(-c4cncc(OC[C@@H](N)CSc5ncc(CO)n5C)c4)cc3c2cc1OC [Ib-167, (2-{[(2R)-2-amino-3-{[5-(4-amino-8,9-dimethoxybenzo[c][2,7]naphthyridin-2-yl)pyridin-3-yl]oxy}propyl]thio}-1-methyl-1H-imidazol-5-yl)methanol]
23 | 10 | COc1cc2ncc3c(N)nc(-c4cncc(OC[C@@H](N)CSc5ccncc5)c4)cc3c2cc1OC [Ib-164, 2-(5-{[(2R)-2-amino-3-(pyridin-4-ylthio)propyl]oxy}pyridin-3-yl)-8,9-dimethoxybenzo[c][2,7]naphthyridin-4-amine]
24 | 59 | COc1cc2c(cc1N1CCOCC1)ncc1c(N)nc(-c3cncc(OC[C@@H](N)Cc4ccccc4)c3)cc12 [Ia-39, 2-(5-{[(2S)-2-Amino-3-phenylpropyl]oxy}pyridin-3-yl)-9-methoxy-8-morpholin-4-ylbenzo[c]-2,7-naphthyridin-4-amine]
25 | 5 | COc1cc2ncc3c(N)nc(-c4cncc(OC[C@@H](N)CN(C)c5cccc(F)c5)c4)cc3c2cc1OC [Ib-83, (2S)-3-{[5-(4-amino-8,9-dimethoxybenzo[c][2,7]naphthyridin-2-yl)pyridin-3-yl]oxy}-N1-(3-fluorophenyl)-N1-methylpropane-1,2-diamine]
26 | 5 | COc1cc2ncc3c(N)nc(-c4cncc(OCCN)c4)cc3c2cc1OC [Ib-11, 2-(5-(2-aminoethoxy)pyridin-3-yl)-8,9-dimethoxybenzo [c][2,7]naphthyridin-4-amine]
27 | 10 | COc1cc2ncc3c(N)nc(-c4cncc(OC[C@@H](N)COc5nccc6ccccc56)c4)cc3c2cc1OC [Ib-147, 2-(5-{[(2R)-2-amino-3-(isoquinolin-1-yloxy)propyl]oxy}pyridin-3-yl)-8,9-dimethoxybenzo[c][2,7]naphthyridin-4-amine]
28 | 3 | COc1cc2ncc3c(N)nc(-c4cncc(OC[C@@H](N)CNc5ccccc5)c4)cc3c2cc1OC [Ib-80, (2S)-3-{[5-(4-amino-8,9-dimethoxybenzo[c][2,7]naphthyridin-2-yl)pyridin-3-yl]oxy}-N^1-phenylpropane-1,2-diamine]
29 | 4 | COc1cc2ncc3c(N)nc(-c4cncc(OC[C@@H](N)CN(C)Cc5cccnc5)c4)cc3c2cc1OC [Ib-6, (2S)-3-{[5-(4-amino-8,9-dimethoxybenzo[c]-2,7-naphthyridin-2-yl)pyridin-3-yl]oxy}-N1-methyl-N1-(pyridin-3-ylmethyl)propane-1,2-diamine]
30 | 9 | COc1cc2ncc3c(N)nc(-c4cncc(OC[C@@H](N)COc5cc(C)ccn5)c4)cc3c2cc1OC [Ib-152, 2-[5-({(2R)-2-amino-3-[(4-methylpyridin-2-yl)oxy]propyl}oxy)pyridin-3-yl]-8,9-dimethoxybenzo[c][2,7]naphthyridin-4-amine]
31 | 4 | COc1cc2ncc3c(N)nc(-c4cncc(OC[C@@H](N)COc5ccc(Cl)cn5)c4)cc3c2cc1OC [Ib-154, 2-[5-({(2R)-2-amino-3-[(5-chloropyridin-2-yl)oxy]propyl}oxy)pyridin-3-yl]-8,9-dimethoxybenzo[c][2,7]naphthyridin-4-amine]
32 | 77 | COc1cc2ncc3c(N)nc(-c4cncc(OC[C@@H](N)CNC(C)(C)C)c4)cc3c2cc1OC [Ib-86, (2S)-3-{[5-(4-amino-8,9-dimethoxybenzo[c][2,7]naphthyridin-2-yl)pyridin-3-yl]oxy}-N1-tert-butylpropane-1,2-diamine]
33 | 3 | COc1cc2ncc3c(N)nc(-c4cncc(OC[C@@H](N)CSc5nccn5C)c4)cc3c2cc1OC [Ib-161, 2-[5-({(2R)-2-amino-3-[(1-methyl-1H-imidazol-2-yl)thio]propyl}oxy)pyridin-3-yl]-8,9-dimethoxybenzo[c][2,7]naphthyridin-4-amine]
